Test results as given in patent US6861223B2, “Ribozyme-encoding DNA and a composition containing an oligonucleotide substrate and a method for measuring transcription rates” (priority 1998, dated 2005).
{FAM} = fluorescein (FAM) reporter dye; {TAMRA} = TAMRA quencher dye

Assays:
FRET substrate (SL1) = assay: Real time FRET measurement of ribozyme cleavage activity (HHR1 with substrate SL1); type: biochemical; conditions: HHR1 4 nM, 37° C.; SL1 vs S1 (conventional gel/autoradiography method)
Excerpt: As the increase in fluorescence is directly correlated to the cleavage rate, the system is suitable for a sensitive, non-radioactive and fast analysis of ribozyme activities. A FRET substrate (SLI) was constructed on the basis of a known HHR/substrate complex (M. Fedor, O. C. Uhlenbeck, Proc. Natl. Acad. Sci. USA (1990), 87, 1668-1672) and was used for a time-dependent measurement of ribozyme activity (HHR1). […] The Michaelis-Menten parameter of HHR can be obtained in a single experiment by measurement of the cleavage-caused rise in fluorescence at different substrate concentrations.
In order to find out whether the method is suitable for the fast characterization of ribozymes, the activity was measured in parallel batches while various physico-chemical parameters were modified.
FIGS. 3b-d show the dependency of the reaction rate on the pH value, the temperature and the Mg^2+ concentration. […]
Characterization of the cleavage activity at 4 nM HHR1 and 200 or 300 nM SL1. (a) Time-dependent course of cleavage with the reciprocally exponential regression curve (only 1% of all data points measured are depicted). […] (0.0134 nM^−1 min^−1) were also determined.
The real time measurements of the rise in fluorescence caused by the ribozyme were taken in 50 μl reaction batches. The signal measured comprises both the chemical step of cleavage and the release of the cleavage products. […]

substrate RNA SL1 = assay: Real time measurement of fluorescence at cleavage of SL1 by HHR1 transcribed in vitro with T7-RNA polymerase; type: biochemical; conditions: 900 nM SL1, 37° C., 535 nm, T7 in-vitro transcription
Method: A typical 50 μl reaction batch contained: 40 mM tris HCl, pH 8.0, 50 mM NaCl, 2 mM spermidin, 5 mM dithiothreitol, 5 to 25 mM MgCl2, about 500 nM SL1, 0.2 to 2 μM HHR1-DNA or HHR1mut-DNA, 4mM A/C/G/UTP and 50 units of T7-RNA-polymerase. […] In-vitro transcription was started by the addition of the polymerase, and incubation was carried out at 37° C. while the measurement was taken. • 3. Real Time Measurement of Fluorescence at Cleavage of SL1 by HHR1:
The fluorescence of the transcription batches was measured in an automated manner in an ABI Prism 770 spectrometer (Applied Biosystems, USA), the temperature of which could be adjusted. The spectra in the emission wavelength range of the two dyes (FAM, λmax=518 nm and TAMRA, λmax=582 nm) were recorded in intervals of 7 seconds (excitation energy=488 nm). After an incubation time of 3 hours, the collected data were evaluated by the software contained in the equipment. For a real time control of the individual transcriptions, the fluorescence spectra (range of 500 nm to 660 nm) were projected time-dependently over the spectrum of the reference transcription (with non-functional HHR1mut DNA).

Row | Substance | Kcat and KM values of FRET substrate compared with 32P labeled substrate S1 (FRET substrate (SL1)) | relative fluorescence ΔRn of the fluorophore / fluorescence signal (substrate RNA SL1)
1 | 5′-FAM-ACG AGU CAG GAU U-TAMRA-3′ (ACGAGUCAGGAUU; RNA, 5' {FAM}, 3' {TAMRA}, backbone not given here) [SL1, 5′-FAM and 3′-TAMRA labeled substrate RNA (FRET substrate)] | in the same order of magnitude | –
2 | 5′-TCT AAT ACG ACT CAC TAT A GGGTCCTCTGATGAGGCCGTTAGGCCGAAACTCGT-3′ [HHR1-DNA] | – | increased with the incubation times
3 | 5′-TCT AAT ACG ACT CAC TAT A GGGTCCTCTTAGGAGGCCGTTAGGCCAGAACTCGT-3′ [HHR1mut, reference compound] | – | no influence
